Data on 13 compounds can be found in patent US12473303B2, “4-[[(7-aminopyrazolo[1,5-a]pyrimidin-5-yl)amino methyl]piperidin-3-ol compounds and their therapeutic use” (CARRICK THERAPEUTICS LIMITED, priority 2019, dated 2025).

In one experiment the target is Human CDK12 wt/CycK (Homo sapiens (Human), UniProt Q9NYV4). The experiment is described as follows: Radiometric protein kinase assay (33PanQinase Activity Assay), CDK12. It counts as biochemical. Conditions: for CDK7/CDK12: ratio greater than 1 indicated selectivity for CDK12. On the procedure: (§1) A radiometric protein kinase assay (^33PanQinase® Activity Assay) was used for measuring the kinase activity of the two protein kinases (CDK12/CDK7). All kinase assays were performed in 96-well FlashPlates™ from PerkinElmer (Boston, MA, USA) in a 50 μL reaction volume.
Sequence of Human CDK12 wt/CycK (Q9NYV4 whole entry): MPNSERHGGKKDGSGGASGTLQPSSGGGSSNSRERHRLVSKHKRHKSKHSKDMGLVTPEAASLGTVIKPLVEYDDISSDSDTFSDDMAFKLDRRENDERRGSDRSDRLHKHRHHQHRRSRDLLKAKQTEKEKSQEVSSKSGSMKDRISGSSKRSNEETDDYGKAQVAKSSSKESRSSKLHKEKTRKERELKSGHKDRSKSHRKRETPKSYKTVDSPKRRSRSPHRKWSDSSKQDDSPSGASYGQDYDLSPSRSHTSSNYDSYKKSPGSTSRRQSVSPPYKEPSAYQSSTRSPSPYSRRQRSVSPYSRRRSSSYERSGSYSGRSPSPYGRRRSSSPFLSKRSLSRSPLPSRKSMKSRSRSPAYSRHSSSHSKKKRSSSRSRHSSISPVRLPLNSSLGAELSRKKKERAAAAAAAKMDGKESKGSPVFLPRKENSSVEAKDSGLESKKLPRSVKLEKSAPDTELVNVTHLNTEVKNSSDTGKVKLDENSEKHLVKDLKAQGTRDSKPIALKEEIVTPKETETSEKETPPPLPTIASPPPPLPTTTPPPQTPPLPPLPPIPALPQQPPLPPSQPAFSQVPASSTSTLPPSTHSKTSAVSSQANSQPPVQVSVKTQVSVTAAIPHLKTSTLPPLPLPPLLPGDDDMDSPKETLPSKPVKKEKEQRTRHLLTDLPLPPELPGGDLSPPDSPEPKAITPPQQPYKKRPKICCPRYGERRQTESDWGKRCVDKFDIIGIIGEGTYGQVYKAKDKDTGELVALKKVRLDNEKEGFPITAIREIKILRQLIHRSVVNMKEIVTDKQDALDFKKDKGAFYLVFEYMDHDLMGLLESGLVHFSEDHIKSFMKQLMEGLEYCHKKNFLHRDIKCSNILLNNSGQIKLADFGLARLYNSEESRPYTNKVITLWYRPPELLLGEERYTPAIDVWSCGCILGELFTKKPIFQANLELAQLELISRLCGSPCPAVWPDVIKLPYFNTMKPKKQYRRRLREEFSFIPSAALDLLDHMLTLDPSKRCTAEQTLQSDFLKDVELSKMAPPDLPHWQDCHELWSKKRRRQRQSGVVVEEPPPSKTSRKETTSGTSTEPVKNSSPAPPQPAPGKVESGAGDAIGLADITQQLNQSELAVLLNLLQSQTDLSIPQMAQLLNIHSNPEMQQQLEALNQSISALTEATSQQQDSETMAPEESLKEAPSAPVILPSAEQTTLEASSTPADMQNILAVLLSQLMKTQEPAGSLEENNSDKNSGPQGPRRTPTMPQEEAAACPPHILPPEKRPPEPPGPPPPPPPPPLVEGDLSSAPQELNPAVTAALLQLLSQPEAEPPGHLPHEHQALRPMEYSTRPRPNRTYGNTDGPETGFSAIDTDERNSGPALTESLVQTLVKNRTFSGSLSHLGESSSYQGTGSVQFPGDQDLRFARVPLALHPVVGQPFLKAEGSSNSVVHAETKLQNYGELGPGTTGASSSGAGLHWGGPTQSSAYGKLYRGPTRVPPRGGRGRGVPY
Sequence of Human CDK12 wt/CycK (O75909 whole entry partner): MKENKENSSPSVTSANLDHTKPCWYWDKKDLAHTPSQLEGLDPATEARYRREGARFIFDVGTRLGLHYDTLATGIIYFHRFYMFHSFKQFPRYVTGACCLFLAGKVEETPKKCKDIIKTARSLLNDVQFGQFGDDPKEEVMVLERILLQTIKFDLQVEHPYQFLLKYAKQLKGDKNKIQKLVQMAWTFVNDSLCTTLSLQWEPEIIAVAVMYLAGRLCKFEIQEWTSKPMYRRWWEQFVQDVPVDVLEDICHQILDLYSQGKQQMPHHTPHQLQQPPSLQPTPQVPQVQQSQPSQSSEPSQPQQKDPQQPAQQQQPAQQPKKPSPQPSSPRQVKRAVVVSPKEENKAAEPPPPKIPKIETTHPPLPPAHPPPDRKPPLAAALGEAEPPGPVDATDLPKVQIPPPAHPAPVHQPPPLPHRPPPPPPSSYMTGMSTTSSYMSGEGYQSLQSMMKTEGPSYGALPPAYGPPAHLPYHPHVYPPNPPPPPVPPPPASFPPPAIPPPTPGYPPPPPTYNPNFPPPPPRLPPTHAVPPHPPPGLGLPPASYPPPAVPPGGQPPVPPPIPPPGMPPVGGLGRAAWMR
(§2) The reaction cocktail was pipetted in four steps in the following order: • 20 μL of assay buffer (standard buffer) • 5 μL of ATP solution (in H2O) • 5 μL of test compound (in 10% DMSO) • 10 μL of substrate/10 μL of enzyme solution (premixed)
(§3) The reaction mixture was incubated at 30° C. for 60 min and then stopped by the addition of 2% (v/v) H3PO4. Plates were aspirated and washed two times with 200 μL 0.9% (w/v) NaCl. Incorporation of ^33Pi was determined with a microplate scintillation count (Microbeta, Wallac).
(§4) The fitting method used was a least-squares fit.

The next experiment relates to A673 cells. Put plainly: Cellular potency in A673 cells. The experiment is classed as cell-based. Conditions: for IC50: Homo sapiens, A673, Table 3, A673 cells; for Ratio of Biochemical Potency: Cellular Potency: Table 3, ratio >0.9 is an indicator of Cyclin K degradation.
A further experiment concerns the target Human CDK7/CycH/MAT1 (Homo sapiens (Human), UniProt P50613). The experiment is described as follows: Radiometric protein kinase assay (33PanQinase Activity Assay), CDK7. It counts as biochemical. Conditions: Table 1; ATP 3 μM. On the procedure: as §1, §2, §3, §4
Where [1] appears, read: Table 1, ATP 0.3 μM, read-out: CDK12 IC50.
[2] abbreviates: Table 3, CDK12 kinase activity, read-out: Biochemical Potency IC50.

Like-named read-outs stand apart in the source and are kept apart here.

Sequence of Human CDK7/CycH/MAT1 (P50613 whole entry): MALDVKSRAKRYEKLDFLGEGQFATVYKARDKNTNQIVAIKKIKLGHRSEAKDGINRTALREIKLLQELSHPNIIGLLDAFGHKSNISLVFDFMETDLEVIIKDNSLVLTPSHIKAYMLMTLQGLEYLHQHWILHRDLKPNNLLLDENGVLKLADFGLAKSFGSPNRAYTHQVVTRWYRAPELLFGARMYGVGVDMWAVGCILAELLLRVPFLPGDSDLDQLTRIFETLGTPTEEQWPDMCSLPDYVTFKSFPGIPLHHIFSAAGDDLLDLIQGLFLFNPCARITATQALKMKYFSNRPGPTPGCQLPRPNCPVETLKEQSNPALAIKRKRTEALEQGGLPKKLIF
Sequence of Human CDK7/CycH/MAT1 (P51946 whole entry partner): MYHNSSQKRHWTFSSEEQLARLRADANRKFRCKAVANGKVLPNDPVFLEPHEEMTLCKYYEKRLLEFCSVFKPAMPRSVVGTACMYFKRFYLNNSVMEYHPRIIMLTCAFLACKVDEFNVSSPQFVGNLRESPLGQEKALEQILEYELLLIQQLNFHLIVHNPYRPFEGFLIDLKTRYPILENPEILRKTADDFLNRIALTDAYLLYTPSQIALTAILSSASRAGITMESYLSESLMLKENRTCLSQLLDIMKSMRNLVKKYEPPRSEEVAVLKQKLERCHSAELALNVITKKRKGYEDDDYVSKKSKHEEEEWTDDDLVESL
Sequence of Human CDK7/CycH/MAT1 (P51948 whole entry partner): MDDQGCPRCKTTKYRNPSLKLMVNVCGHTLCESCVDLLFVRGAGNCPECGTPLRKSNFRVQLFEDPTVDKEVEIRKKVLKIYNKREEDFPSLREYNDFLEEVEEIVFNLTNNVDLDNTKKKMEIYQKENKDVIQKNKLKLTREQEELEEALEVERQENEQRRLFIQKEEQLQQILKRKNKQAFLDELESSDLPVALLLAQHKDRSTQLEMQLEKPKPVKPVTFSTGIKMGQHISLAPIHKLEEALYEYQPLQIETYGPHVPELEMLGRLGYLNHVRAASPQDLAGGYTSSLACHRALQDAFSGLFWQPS

For `Cc1ccn2c(CNc3cc(NC[C@H]4CCNC[C@@H]4O)nc4c(C(C)C)cnn34)c(C)nc2c1` [H-APPAMP-015, (3R,4R)-4-(((7-(((2,7-dimethylimidazo[1,2-a]pyridin-3-yl)methyl)amino)-3-isopropylpyrazolo[1,5-a]pyrimidin-5-yl)amino)methyl)piperidin-3-ol], the IC50 (in general, the concentration that inhibits the measured activity by half) on Human CDK12 wt/CycK (setting [1]) was determined as 277 nM; on Human CDK12 wt/CycK (setting [2]), 277 nM; in the experiment with A673 cells, 151 nM; on Human CDK7/CycH/MAT1, 3 nM. Further, the CDK7/CDK12 at Human CDK12 wt/CycK (Table 1) is listed as 0.01. In addition, the “Ratio of Biochemical Potency: Cellular Potency” value (“Ratio of Biochemical Potency” for short) in the experiment with A673 cells stood at 1.8.

For `CC(C)c1cnn2c(NCc3cnc4ccccn34)cc(NC[C@H]3CCNC[C@@H]3O)nc12` [H-APPAMP-016, (3R,4R)-4-(((7-((imidazo[1,2-a]pyridin-3-ylmethyl)amino)-3-isopropylpyrazolo[1,5-a]pyrimidin-5-yl)amino)methyl)piperidin-3-ol], the IC50 was 96 nM at Human CDK12 wt/CycK (setting [1]), 96 nM on Human CDK12 wt/CycK (setting [2]), 14.8 nM with A673 cells and 179 nM against Human CDK7/CycH/MAT1. Moreover, at Human CDK12 wt/CycK (Table 1), the CDK7/CDK12 stood at 1.9. For the same compound, the “Ratio of Biochemical Potency” value in the experiment with A673 cells came out at 6.5.

As for `Cc1c(CNc2cc(NC[C@H]3CCNC[C@@H]3O)nc3c(C(C)C)cnn23)nc2ccccn12` [H-APPAMP-017, (3R,4R)-4-(((3-isopropyl-7-(((3-methylimidazo[1,2-a]pyridin-2-yl)methyl)amino)pyrazolo[1,5-a]pyrimidin-5-yl)amino)methyl)piperidin-3-ol], the IC50 stood at 63 nM on Human CDK12 wt/CycK (setting [1]), 143 nM at Human CDK12 wt/CycK (setting [2]), 8.3 nM in the experiment with A673 cells and 40 nM on Human CDK7/CycH/MAT1. For the same compound, on Human CDK12 wt/CycK (Table 1), the CDK7/CDK12 is reported as 0.6. Also, the “Ratio of Biochemical Potency” value in the experiment with A673 cells was found to be 17.2.

Regarding `[2H]C([2H])(Nc1cc(NC[C@H]2CCNC[C@@H]2O)nc2c(C(C)C)cnn12)c1cn2ccccc2n1` [H-APPAMP-018, (3R,4R)-4-(((7-((imidazo[1,2-a]pyridin-2-ylmethyl-d2)amino)-3-isopropylpyrazolo[1,5-a]pyrimidin-5-yl)amino)methyl)piperidin-3-ol], the IC50 on Human CDK12 wt/CycK (setting [1]) turned out to be 65 nM; at Human CDK12 wt/CycK (setting [2]), 65 nM; in the experiment on A673 cells, 16.3 nM; at Human CDK7/CycH/MAT1 it was 206 nM. Besides, the CDK7/CDK12 at Human CDK12 wt/CycK (Table 1) is reported as 3.2. In addition, the “Ratio of Biochemical Potency” value with A673 cells is recorded as 4.0.

As to `CC(C)c1cnn2c(NC(C)c3cn4ccccc4n3)cc(NC[C@H]3CCNC[C@@H]3O)nc12` (stereo partly drawn) [H-APPAMP-019, (3R,4R)-4-(((7-((1-(imidazo[1,2-a]pyridin-2-yl)ethyl)amino)-3-isopropylpyrazolo[1,5-a]pyrimidin-5-yl)amino)methyl)piperidin-3-ol], the IC50 was determined as 522 nM at Human CDK12 wt/CycK (setting [1]), 522 nM at Human CDK12 wt/CycK (setting [2]), 76.9 nM in the experiment with A673 cells and 640 nM against Human CDK7/CycH/MAT1. The CDK7/CDK12 at Human CDK12 wt/CycK (Table 1) amounted to 1.2. Besides, the “Ratio of Biochemical Potency” value in the experiment on A673 cells was 6.8.

With `CC(C)c1cnn2c(NCc3cc4ccccc4o3)cc(NC[C@H]3CCNC[C@@H]3O)nc12` [H-APPAMP-020, (3R,4R)-4-(((7-((benzofuran-2-ylmethyl)amino)-3-isopropylpyrazolo[1,5-a]pyrimidin-5-yl)amino)methyl)piperidin-3-ol], the IC50 on Human CDK12 wt/CycK (setting [1]) was determined as 540 nM; at Human CDK12 wt/CycK (setting [2]), 540 nM; with A673 cells, 116 nM; against Human CDK7/CycH/MAT1, 82 nM. Moreover, the CDK7/CDK12 on Human CDK12 wt/CycK (Table 1) is 0.2. For the same compound, the “Ratio of Biochemical Potency” value with A673 cells is on record as 4.7.

Consider `CC(C)c1cnn2c(NCc3cnc4ccccc4c3)cc(NC[C@H]3CCNC[C@@H]3O)nc12` [H-APPAMP-021, (3R,4R)-4-(((3-isopropyl-7-((quinolin-3-ylmethyl)amino)pyrazolo[1,5-a]pyrimidin-5-yl)amino)methyl)piperidin-3-ol], for which the IC50 at Human CDK12 wt/CycK (setting [1]) is 167 nM; on Human CDK12 wt/CycK (setting [2]), 167 nM; in the experiment on A673 cells, 2.7 nM; on Human CDK7/CycH/MAT1 it was 28 nM. In addition, the CDK7/CDK12 at Human CDK12 wt/CycK (Table 1) is 0.2. Besides, in the experiment with A673 cells, the “Ratio of Biochemical Potency” value amounted to 62.

As to `Cc1cccn2cc(CNc3cc(NC[C@H]4CCNC[C@@H]4O)nc4c(C5CC5)cnn34)nc12` [H-APPAMP-022, (3R,4R)-4-(((3-cyclopropyl-7-(((8-methylimidazo[1,2-a]pyridin-2-yl)methyl)amino)pyrazolo[1,5-a]pyrimidin-5-yl)amino)methyl)piperidin-3-ol], the IC50 was 164 nM on Human CDK12 wt/CycK (setting [1]), 164 nM on Human CDK12 wt/CycK (setting [2]), 10.3 nM in the experiment with A673 cells and 622 nM against Human CDK7/CycH/MAT1. Further, at Human CDK12 wt/CycK (Table 1), the CDK7/CDK12 is listed as 3.8. In addition, in the experiment on A673 cells, the “Ratio of Biochemical Potency” value is given as 16.

On to `CC(C)c1cnn2c(NCc3nc4ccccn4c3C(F)(F)F)cc(NC[C@H]3CCNC[C@@H]3O)nc12` [H-APPAMP-023, (3R,4R)-4-(((3-isopropyl-7-(((3-(trifluoromethyl)imidazo[1,2-a]pyridin-2-yl)methyl)amino)pyrazolo[1,5-a]pyrimidin-5-yl)amino)methyl)piperidin-3-ol], for which the IC50 on Human CDK12 wt/CycK (setting [1]) stood at 702 nM; at Human CDK12 wt/CycK (setting [2]), 702 nM; in the experiment on A673 cells, 296 nM; against Human CDK7/CycH/MAT1, 102 nM. On Human CDK12 wt/CycK (Table 1), the CDK7/CDK12 is on record as 0.1. The “Ratio of Biochemical Potency” value in the experiment on A673 cells was 2.4.

On to `CC(C)c1cnn2c(NCc3nc4ccccn4c3C3CC3)cc(NC[C@H]3CCNC[C@@H]3O)nc12` [H-APPAMP-024, (3R,4R)-4-(((7-(((3-cyclopropylimidazo[1,2-a]pyridin-2-yl)methyl)amino)-3-isopropylpyrazolo[1,5-a]pyrimidin-5-yl)amino)methyl)piperidin-3-ol], for which the IC50 on Human CDK12 wt/CycK (setting [1]) turned out to be 93 nM; on Human CDK12 wt/CycK (setting [2]), 93 nM; in the experiment with A673 cells it was 19.8 nM; on Human CDK7/CycH/MAT1, 283 nM. Further, the CDK7/CDK12 at Human CDK12 wt/CycK (Table 1) turned out to be 3.0. Further, the “Ratio of Biochemical Potency” value in the experiment on A673 cells was 4.7.

Take `CCc1cnn2c(NCc3cn4cccc(C)c4n3)cc(NC[C@H]3CCNC[C@@H]3O)nc12` [H-APPAMP-026, (3R,4R)-4-(((3-ethyl-7-(((8-methylimidazo[1,2-a]pyridin-2-yl)methyl)amino)pyrazolo[1,5-a]pyrimidin-5-yl)amino)methyl)piperidin-3-ol]: the IC50 is 31 nM at Human CDK12 wt/CycK (setting [1]), 31 nM at Human CDK12 wt/CycK (setting [2]), 2.5 nM with A673 cells and 69 nM at Human CDK7/CycH/MAT1. Moreover, at Human CDK12 wt/CycK (Table 1), the CDK7/CDK12 is given as 2.2. For the same compound, the “Ratio of Biochemical Potency” value with A673 cells was determined as 12.

In the case of `COc1cccc2nc(CNc3cc(NC[C@H]4CCNC[C@@H]4O)nc4c(C5CC5)cnn34)cn12` [H-APPAMP-027, (3R,4R)-4-(((3-cyclopropyl-7-(((5-methoxyimidazo[1,2-a]pyridin-2-yl)methyl)amino)pyrazolo[1,5-a]pyrimidin-5-yl)amino)methyl)piperidin-3-ol], the IC50 on Human CDK12 wt/CycK (setting [1]) is 28 nM; on Human CDK12 wt/CycK (setting [2]), 28 nM; in the experiment on A673 cells, 1.6 nM; on Human CDK7/CycH/MAT1, 127 nM. In addition, the CDK7/CDK12 on Human CDK12 wt/CycK (Table 1) came out at 4.5. Also, in the experiment with A673 cells, the “Ratio of Biochemical Potency” value turned out to be 18.

As for `O[C@H]1CNCC[C@@H]1CNc1cc(NCc2cn3nc(C4CC4)ccc3n2)n2ncc(C3CC3)c2n1` [H-APPAMP-028, (3R,4R)-4-(((3-cyclopropyl-7-(((6-cyclopropylimidazo[1,2-b]pyridazin-2-yl)methyl)amino)pyrazolo[1,5-a]pyrimidin-5-yl)amino)methyl)piperidin-3-ol], the IC50 on Human CDK12 wt/CycK (setting [1]) worked out at 37 nM; at Human CDK12 wt/CycK (setting [2]), 37 nM; with A673 cells, 13.1 nM; against Human CDK7/CycH/MAT1, 68 nM. For the same compound, on Human CDK12 wt/CycK (Table 1), the CDK7/CDK12 was determined as 1.8. Moreover, the “Ratio of Biochemical Potency” value in the experiment with A673 cells is 2.8.
